Entries after “also recorded” stand apart in the source; their conditions may differ.
Tests used:
FLT3 = biological target: T1, FLT3 (Homo sapiens, UniProt P36888); assay: radiometric protein kinase assay (33PanQinase Activity Assay); type: biochemical; conditions: for Inhibition of Kinases IC50 / IC50: panel of 24 kinases, 1 μM ATP; for IC50: read-out: Inhibition of Kinases IC50
T1 construct: made in house; host or cells: Sf9 insect cells (baculovirus)
T1 sequence (P36888 27-993): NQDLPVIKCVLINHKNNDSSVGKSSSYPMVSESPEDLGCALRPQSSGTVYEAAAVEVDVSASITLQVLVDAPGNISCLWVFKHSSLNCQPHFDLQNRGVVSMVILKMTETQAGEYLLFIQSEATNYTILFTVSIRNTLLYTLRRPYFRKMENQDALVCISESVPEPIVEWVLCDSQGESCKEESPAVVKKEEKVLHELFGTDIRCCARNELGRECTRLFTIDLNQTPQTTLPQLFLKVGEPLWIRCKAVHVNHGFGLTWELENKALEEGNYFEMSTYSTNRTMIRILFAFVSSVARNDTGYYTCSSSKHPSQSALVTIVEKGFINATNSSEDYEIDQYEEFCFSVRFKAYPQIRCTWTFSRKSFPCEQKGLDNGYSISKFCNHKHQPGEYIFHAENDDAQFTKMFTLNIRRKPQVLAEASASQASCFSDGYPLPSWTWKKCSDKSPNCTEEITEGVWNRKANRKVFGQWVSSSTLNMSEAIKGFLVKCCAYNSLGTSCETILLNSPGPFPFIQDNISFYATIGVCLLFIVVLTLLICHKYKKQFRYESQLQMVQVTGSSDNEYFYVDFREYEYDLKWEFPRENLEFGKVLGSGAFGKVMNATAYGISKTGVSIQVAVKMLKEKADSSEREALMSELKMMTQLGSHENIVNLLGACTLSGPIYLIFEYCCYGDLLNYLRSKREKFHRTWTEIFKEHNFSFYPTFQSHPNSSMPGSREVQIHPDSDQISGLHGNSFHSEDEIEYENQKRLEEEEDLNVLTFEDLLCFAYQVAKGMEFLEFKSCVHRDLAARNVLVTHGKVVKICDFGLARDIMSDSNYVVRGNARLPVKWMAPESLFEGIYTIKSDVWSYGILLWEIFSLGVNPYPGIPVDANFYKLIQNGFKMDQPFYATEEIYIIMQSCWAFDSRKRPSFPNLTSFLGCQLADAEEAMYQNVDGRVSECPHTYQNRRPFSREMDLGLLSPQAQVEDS
Description: (§1) Radicicol A (1) and analogues 3 and 31 were tested for its inhibition in a panel of 24 kinase (AKT1, ARKS, Aurora-A, Aurora-B, B-RAF-VE, CDK2/CycA, CDK4/CycD1, CK2-α1, FAK, EPHB4, ERB2, EGF-R, IGF1-R, SRC, VEGF-R2, VEGF-R3, FLT3, INS-R, MET, PDGFR-β, PLK1, SAK, TIE2, COT) at 10 μM using the procedure described below.
(§2) All protein kinases were expressed in Sf9 insect cells as human recombinant GST-fusion proteins or His-tagged proteins by means of the baculovirus expression system. Kinases were purified by affinity chromatography using either GSH-agarose (Sigma) or Ni-NTH-agarose (Qiagen). The purity of each kinase was checked by SDS-PAGE/silver staining and the identity of each kinase was verified by western blot analysis with kinase specific antibodies or by mass spectroscopy.
(§3) A radiometric protein kinase assay (^33PanQinase® Activity Assay) was used for measuring the kinase activity of the 24 protein kinases. All kinase assays were performed in 96-well FIashPlates™ from Perkin Elmer (Boston, Mass., USA) in a 50 μl reaction volume. The reaction cocktail was pipetted in 4 steps in the following order: • 20 μl of assay buffer • 5 μl of ATP solution (in H2O) • 5 μl of test compound (in 10% DMSO) • 10 μl of substrate/10 μl of enzyme solution (premixed)
(§4) The assay for all enzymes contained 60 mM HEPES-NaOH, pH 7.5, 3 mM MgCl2, 3 mM MnCl2, 3 μM Na-orthovanadate, 1.2 mM DTT, 50 μg/ml PEG20000, 1 μM [γ-^33P]-ATP (approx. 5×10^05 cpm per well).
(§5) The reaction cocktails were incubated at 30° C. for 80 minutes. The reaction was stopped with 50 μl of 2% (v/v) H3PO4, plates were aspirated and washed two times with 200 μl of 0.9% (w/v) NaCl or 200 μl H2O. Incorporation of ^33Pi was determined with a microplate scintillation counter (Microbeta Trilux, Wallac). All assays were performed with a BeckmanCoulter/Sagian robotic system.
(§6) Using the same method described above, compound 31 was evaluated in a panel of 127 kinase enzymes.

VEGF-R3 = biological target: T2, VEGF-R3 (Homo sapiens, UniProt P35916); assay: as above; type: biochemical; conditions: for Inhibition of Kinases IC50 / IC50: panel of 24 kinases, 1 μM ATP; for IC50: read-out: Inhibition of Kinases IC50
T2 construct: made in house; host or cells: Sf9 insect cells (baculovirus)
T2 sequence (P35916 25-1363): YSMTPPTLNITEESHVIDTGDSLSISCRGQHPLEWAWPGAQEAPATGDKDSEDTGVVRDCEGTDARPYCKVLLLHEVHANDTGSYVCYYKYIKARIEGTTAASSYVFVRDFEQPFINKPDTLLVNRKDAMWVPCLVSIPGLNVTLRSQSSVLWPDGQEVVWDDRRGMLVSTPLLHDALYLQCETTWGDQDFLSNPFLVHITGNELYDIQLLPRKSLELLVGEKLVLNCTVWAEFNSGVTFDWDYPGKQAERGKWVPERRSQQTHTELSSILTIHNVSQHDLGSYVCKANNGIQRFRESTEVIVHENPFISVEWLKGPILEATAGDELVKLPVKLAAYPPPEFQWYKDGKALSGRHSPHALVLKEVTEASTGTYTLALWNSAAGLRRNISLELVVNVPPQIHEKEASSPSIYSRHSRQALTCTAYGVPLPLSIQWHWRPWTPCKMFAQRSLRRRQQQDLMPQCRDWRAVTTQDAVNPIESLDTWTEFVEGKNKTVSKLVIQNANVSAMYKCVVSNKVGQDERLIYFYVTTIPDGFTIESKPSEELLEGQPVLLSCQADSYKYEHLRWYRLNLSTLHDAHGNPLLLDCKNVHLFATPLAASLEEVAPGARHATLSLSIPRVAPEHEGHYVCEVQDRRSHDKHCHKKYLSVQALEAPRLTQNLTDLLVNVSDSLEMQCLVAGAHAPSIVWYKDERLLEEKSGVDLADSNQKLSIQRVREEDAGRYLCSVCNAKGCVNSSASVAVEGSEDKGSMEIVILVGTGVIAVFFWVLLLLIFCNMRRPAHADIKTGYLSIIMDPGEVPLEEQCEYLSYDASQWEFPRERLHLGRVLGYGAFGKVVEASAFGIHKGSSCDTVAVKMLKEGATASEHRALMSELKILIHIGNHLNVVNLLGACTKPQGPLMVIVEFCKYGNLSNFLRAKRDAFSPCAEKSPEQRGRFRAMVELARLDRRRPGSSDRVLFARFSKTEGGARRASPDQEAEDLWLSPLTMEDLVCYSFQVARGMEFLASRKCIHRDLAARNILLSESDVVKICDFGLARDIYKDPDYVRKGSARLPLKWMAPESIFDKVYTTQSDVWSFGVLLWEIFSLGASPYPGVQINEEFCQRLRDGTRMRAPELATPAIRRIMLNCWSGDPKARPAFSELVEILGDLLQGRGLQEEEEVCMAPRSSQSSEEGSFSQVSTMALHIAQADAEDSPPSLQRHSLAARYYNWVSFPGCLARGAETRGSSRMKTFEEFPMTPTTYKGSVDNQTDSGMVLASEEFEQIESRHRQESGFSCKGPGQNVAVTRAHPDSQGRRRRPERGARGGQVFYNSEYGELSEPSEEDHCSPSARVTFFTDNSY
Description: as §1, §2, §3, §4, §5, §6

B-RAF-VE = biological target: T3, B-RAF-VE (Homo sapiens, UniProt P15056, V600E); assay: as above; type: biochemical; conditions: panel of 24 kinases, 1 μM ATP, read-out: Inhibition of Kinases IC50
T3 construct: made in house; host or cells: Sf9 insect cells (baculovirus)
T3 sequence (P15056 whole entry V600E): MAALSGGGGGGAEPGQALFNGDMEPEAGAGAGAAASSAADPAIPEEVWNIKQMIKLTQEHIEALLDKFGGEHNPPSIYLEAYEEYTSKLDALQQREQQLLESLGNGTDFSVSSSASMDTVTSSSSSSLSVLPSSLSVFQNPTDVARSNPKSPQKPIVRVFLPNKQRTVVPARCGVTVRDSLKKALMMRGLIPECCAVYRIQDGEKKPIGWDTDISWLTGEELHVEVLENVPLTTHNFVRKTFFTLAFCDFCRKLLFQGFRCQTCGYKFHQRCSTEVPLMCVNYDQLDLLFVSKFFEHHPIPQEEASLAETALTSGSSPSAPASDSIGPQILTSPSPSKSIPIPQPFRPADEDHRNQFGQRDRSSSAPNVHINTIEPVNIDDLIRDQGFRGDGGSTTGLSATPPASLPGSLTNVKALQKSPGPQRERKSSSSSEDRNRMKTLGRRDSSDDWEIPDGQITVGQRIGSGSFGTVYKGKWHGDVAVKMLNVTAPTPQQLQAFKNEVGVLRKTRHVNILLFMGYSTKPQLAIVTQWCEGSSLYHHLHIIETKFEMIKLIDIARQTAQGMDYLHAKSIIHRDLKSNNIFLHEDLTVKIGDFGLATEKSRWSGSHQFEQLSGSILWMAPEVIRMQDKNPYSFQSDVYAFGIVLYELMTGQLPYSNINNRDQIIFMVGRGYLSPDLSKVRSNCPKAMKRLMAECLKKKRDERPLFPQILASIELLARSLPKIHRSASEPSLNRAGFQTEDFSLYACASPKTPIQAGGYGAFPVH
Description: as §1, §2
A radiometric protein kinase assay (^33PanQinase® Activity Assay) was used for measuring the kinase activity of the 24 protein kinases. All kinase assays were performed in 96-well FIashPlates™ from Perkin Elmer (Boston, Mass., USA) in a 50 μl reaction volume. […]
(§7) The reaction cocktails were incubated at 30° C. for 80 minutes. […] Incorporation of ^33Pi was determined with a microplate scintillation counter (Microbeta Trilux, Wallac). […]

VEGF-R2 [1] = biological target: T4, VEGF-R2 (Homo sapiens, UniProt P35968); assay: as above; type: biochemical; parameters: made in house; host or cells: Sf9 insect cells (baculovirus); conditions: for Inhibition of Kinases IC50 / IC50: panel of 24 kinases, 1 μM ATP; for IC50: read-out: Inhibition of Kinases IC50
T4 sequence (P35968 20-1356): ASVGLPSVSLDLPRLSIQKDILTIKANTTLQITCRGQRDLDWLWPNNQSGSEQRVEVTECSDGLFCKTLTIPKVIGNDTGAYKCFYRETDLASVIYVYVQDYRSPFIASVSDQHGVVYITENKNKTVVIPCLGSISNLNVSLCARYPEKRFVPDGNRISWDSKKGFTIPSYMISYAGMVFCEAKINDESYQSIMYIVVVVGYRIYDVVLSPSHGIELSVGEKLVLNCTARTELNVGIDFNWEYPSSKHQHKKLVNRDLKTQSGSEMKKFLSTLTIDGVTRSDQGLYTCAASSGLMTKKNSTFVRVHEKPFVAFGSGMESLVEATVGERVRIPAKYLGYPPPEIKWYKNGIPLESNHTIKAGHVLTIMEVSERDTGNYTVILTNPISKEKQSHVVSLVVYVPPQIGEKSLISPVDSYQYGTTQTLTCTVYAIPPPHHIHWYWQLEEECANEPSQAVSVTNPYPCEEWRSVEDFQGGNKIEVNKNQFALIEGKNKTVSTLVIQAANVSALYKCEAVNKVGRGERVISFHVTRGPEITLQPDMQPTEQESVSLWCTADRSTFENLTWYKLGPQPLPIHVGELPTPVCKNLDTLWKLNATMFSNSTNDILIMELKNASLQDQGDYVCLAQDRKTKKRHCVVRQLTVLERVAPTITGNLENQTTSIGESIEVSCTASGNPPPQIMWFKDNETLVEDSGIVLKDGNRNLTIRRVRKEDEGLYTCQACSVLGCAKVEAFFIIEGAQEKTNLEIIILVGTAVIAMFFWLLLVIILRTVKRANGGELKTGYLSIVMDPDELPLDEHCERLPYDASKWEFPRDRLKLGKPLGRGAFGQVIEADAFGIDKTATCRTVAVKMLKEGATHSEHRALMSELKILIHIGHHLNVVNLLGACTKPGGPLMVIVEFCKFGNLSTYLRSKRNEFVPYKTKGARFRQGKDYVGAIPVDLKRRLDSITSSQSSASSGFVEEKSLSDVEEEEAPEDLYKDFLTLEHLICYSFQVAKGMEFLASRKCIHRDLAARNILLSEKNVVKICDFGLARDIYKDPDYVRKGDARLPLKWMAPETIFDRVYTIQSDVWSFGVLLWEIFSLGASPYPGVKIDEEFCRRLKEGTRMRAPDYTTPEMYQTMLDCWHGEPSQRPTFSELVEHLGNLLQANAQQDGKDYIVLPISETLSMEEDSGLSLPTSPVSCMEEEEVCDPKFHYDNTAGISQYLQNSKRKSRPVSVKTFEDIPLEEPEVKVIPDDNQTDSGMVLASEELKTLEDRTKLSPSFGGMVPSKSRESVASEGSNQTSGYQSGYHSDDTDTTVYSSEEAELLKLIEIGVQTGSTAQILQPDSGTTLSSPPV
Description: as §1, §2, §3, §4, §5, §6

PDGFR-β = PDGFR-β (Homo sapiens, UniProt P09619); assay: PDGFR-β autophosphorylation; type: cell-based; conditions: cellular autophosphorylation
PDGFR-β, sequence (P09619 33-1106, species assumed): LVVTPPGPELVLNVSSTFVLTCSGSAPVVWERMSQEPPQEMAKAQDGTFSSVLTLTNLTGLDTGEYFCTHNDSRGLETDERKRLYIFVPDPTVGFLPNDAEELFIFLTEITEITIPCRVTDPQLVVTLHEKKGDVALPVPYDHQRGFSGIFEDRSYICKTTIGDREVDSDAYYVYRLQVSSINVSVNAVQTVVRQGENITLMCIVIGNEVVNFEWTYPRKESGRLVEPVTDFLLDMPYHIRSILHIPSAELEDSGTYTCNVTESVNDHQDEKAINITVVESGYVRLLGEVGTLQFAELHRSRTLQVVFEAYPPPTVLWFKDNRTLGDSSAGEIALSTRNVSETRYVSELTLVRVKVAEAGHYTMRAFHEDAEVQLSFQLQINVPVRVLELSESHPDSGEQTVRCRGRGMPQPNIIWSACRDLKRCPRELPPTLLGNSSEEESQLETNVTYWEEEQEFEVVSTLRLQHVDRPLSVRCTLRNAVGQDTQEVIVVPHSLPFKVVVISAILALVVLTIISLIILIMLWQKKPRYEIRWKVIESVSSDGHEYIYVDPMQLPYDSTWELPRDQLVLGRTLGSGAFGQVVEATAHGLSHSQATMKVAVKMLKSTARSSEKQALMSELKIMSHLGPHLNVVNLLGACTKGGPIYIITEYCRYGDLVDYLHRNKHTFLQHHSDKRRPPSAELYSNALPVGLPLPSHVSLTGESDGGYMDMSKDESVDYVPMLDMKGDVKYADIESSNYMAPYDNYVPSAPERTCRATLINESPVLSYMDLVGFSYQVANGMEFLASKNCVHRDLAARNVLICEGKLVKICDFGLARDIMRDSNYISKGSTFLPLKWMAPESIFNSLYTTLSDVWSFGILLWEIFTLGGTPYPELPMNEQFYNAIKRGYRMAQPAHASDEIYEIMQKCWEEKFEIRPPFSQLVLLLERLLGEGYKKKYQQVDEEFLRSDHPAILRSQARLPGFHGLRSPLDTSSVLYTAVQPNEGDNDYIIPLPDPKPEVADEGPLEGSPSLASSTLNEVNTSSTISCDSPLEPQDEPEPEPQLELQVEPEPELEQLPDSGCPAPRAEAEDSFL

MEK1 = biological target: T5, MEK1 (Homo sapiens, UniProt Q02750); assay: panel of 127 kinases, radiometric protein kinase assay; type: biochemical; conditions: FIG. 1, result in words
T5 construct: made in house; host or cells: Sf9 insect cells (baculovirus)
T5 sequence (Q02750 whole entry): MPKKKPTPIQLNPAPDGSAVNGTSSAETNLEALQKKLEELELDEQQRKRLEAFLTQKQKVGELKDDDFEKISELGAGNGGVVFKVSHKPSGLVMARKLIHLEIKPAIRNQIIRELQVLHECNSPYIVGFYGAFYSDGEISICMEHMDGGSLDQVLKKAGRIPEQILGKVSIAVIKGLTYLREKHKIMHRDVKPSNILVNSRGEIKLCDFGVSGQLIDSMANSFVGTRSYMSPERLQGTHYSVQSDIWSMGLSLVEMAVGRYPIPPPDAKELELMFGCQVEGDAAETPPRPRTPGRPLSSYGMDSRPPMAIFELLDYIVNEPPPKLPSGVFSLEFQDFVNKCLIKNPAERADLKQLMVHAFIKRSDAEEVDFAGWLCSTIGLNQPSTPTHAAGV
Description: as §2, §3, §4, §7, §6

PDGFR-α = biological target: T6, PDGFR-α (Homo sapiens, UniProt P16234); assay: as above; type: biochemical; conditions: FIG. 1, result in words
T6 construct: made in house; host or cells: Sf9 insect cells (baculovirus)
Description: as §2, §3, §4, §7, §6

VEGF-R2 [2] = biological target: T4, VEGF-R2; assay: VEGF-R2 autophosphorylation in presence of VEGF165 in immortalized HUVECs (ELISA); type: cell-based; conditions: 90 min incubation, then VEGF165 for 7 min, read-out: cellular IC50, VEGF-R2 autophosphorylation
Description: The potential efficacy of Compound 31 in vivo was assessed by measuring the level of VEGF-R2 autophosphorylation in the presence of its ligand (VEGF165). Thus immortalized HUVECs known to express high levels of VEGF-R2 were incubated with inhibitor 31 for 90 min. and then stimulated with VEGF165 for 7 min. The level of autophosphorylation was measured by ELISA using antiVEGF-R2 as capture antibody and anti-phosphotyrosine as detection antibody. Results are expressed as percentage of maximal autophosphorylation in the absence of inhibitor (FIGS. 1 and 2).
A number of RALs such as pochonins C and D are substituted with a chlorine atom at the 5 position rather than a methoxy, as with analogue 31. […] The potential efficacy of this compound in vivo was then assessed by measuring the level of VEGF-R2 autophosphorylation in the presence of its ligand (VEGF165). […] The level of autophosphorylation was measured by ELISA using antiVEGF-R2 as capture antibody and anti-phosphotyrosine as detection antibody. Results are expressed as percentage of maximal autophosphorylation in the absence of inhibitor (FIG. 3).
The potential efficacy of compound 31 in vivo was assessed by measuring the level of VEGF-R2 autophosphorylation in the presence of its ligand (VEGF165). […] The level of autophosphorylation was measured by ELISA using antiVEGF-R2 as capture antibody and anti-phosphotyrosine as detection antibody. […]

PDGFR-beta = biological target: T7, PDGFR-beta (Homo sapiens, UniProt P09619); assay: radiometric protein kinase assay (33PanQinase Activity Assay); type: biochemical
T7 construct: made in house; host or cells: Sf9 insect cells (baculovirus)
T7 sequence (P09619 33-1106): as the sequence (P09619 33-1106, species assumed) above
Description: as §2, §3, §4, §5, §6

TIE2 = TIE2 (Homo sapiens, UniProt Q02763); assay: autophosphorylation of TIE2; type: cell-based; conditions: cellular autophosphorylation; result in words
[3] = panel of 127 kinases, FIG. 1, result in words

Structure (SMILES): COc1cc(O)c2c(c1)/C=C/C[C@H](O)[C@H](O)C(=O)/C=C\C[C@H](C)OC2=O [Compound 3, 5-Z-7-oxozeaenol]
- Inhibition of Kinases IC50 (FLT3): potent inhibitory activity
- IC50 (FLT3): 170 nM
- Inhibition of Kinases IC50 (VEGF-R3): potent inhibitory activity
- IC50 (VEGF-R3): 110 nM
- IC50 (B-RAF-VE): 6300 nM
- Inhibition of Kinases IC50 (VEGF-R2 [1]): potent inhibitory activity
- IC50 (VEGF-R2 [1]): 52 nM

Structure (SMILES): COc1cc(O)c2c(c1Cl)/C=C/C[C@H](O)[C@H](O)C(=O)/C=C\C[C@H](C)OC2=O [Compound 31]
- IC50 (PDGFR-β): 13000 nM
- Inhibition of Kinases IC50 (FLT3): potent inhibitory activity
- IC50 (FLT3): 1800 nM
- inhibitory activity (IC50) in a panel of 127 kinases (FLT3; [3]): low micromolar concentrations; also recorded: low μM concentrations
- Inhibition of Kinases IC50 (VEGF-R3): potent inhibitory activity
- IC50 (VEGF-R3): 210 nM
- inhibitory activity (IC50) in a panel of 127 kinases (VEGF-R3; [3]): nanomolar concentrations; also recorded: nM concentrations
- inhibitory activity (IC50) in a panel of 127 kinases (MEK1): nanomolar concentrations; also recorded: nM concentrations
- inhibitory activity (IC50) in a panel of 127 kinases (PDGFR-α): nanomolar concentrations; also recorded: nM concentrations
- IC50 (VEGF-R2 [2]): 440 nM
- Inhibition of Kinases IC50 (PDGFR-beta; PDGFR-beta, panel of 24 kinases, 1 μM ATP): potent inhibitory activity
- IC50 (PDGFR-beta; PDGFR-beta, panel of 24 kinases, 1 μM ATP, read-out: Inhibition of Kinases IC50): 370 nM
- inhibitory activity (IC50) in a panel of 127 kinases (PDGFR-beta; PDGFR-β, panel of 127 kinases, FIG. 1, result in words): nanomolar concentrations; also recorded: nM concentrations
- autophosphorylation of TIE2 (TIE2): unaffected
- Inhibition of Kinases IC50 (VEGF-R2 [1]): potent inhibitory activity
- IC50 (VEGF-R2 [1]): 90 nM
- inhibitory activity (IC50) in a panel of 127 kinases (VEGF-R2 [1]; [3]): nanomolar concentrations; also recorded: nM concentrations

From US8513440B2, “Compositions and methods comprising analogues of radicicol A” (Universite de Strasbourg, priority 2007, dated 2013)
